Laboratory results taken from ChEMBL document CHEMBL1201862, “PubChem BioAssay data set” (2004).
The source made the active and inactive calls.

Tests used:
Streptokinase A = target: T1, Streptokinase A (Streptococcus pyogenes serotype M1, UniProt P10520); assay: S. pyogenes streptokinase expression inhibitors, potency, dose response, plasminogen activation absorbance, OD405 (AID 1914); assay type: functional, Streptococcus pyogenes M1 GAS;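 further: secreted streptokinase activity via plasminogen activation per viability signal from cell pellet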
T1 sequence (P10520 whole entry): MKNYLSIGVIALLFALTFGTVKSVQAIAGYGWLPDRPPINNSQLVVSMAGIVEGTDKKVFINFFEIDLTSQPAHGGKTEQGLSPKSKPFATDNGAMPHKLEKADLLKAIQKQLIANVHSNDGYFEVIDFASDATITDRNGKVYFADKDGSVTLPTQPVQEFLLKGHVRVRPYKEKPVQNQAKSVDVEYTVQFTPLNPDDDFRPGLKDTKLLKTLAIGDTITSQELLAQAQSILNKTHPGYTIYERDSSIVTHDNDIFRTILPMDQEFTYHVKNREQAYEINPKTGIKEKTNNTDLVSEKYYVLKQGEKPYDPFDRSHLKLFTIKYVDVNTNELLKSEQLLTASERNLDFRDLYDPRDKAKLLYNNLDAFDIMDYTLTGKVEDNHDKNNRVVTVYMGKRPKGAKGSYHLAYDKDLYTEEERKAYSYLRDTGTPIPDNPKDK

Caspase-3 = target: T2, Caspase-3 (Homo sapiens, UniProt P42574); assay type: functional;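 further: Dose-response selectivity test against caspase-3 for candidate inhibitors of sentrin-specific proteases (SENPs)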
T2 sequence (P42574 whole entry): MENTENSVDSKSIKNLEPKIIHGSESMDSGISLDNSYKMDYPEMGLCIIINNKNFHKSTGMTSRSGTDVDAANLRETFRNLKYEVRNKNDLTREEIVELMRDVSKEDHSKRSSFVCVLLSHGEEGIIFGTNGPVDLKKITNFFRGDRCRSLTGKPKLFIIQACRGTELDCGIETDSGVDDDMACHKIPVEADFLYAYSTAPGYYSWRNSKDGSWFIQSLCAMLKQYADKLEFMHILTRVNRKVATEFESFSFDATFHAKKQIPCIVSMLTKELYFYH

[1] = target: T3, Sentrin-specific protease 7 (Homo sapiens, UniProt Q9BQF6); assay type: functional;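 further: Luminescence-based dose-response confirmation of ultra-high-throughput screening hits, measuring inhibition of SENP7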
T3 sequence (Q9BQF6 whole entry): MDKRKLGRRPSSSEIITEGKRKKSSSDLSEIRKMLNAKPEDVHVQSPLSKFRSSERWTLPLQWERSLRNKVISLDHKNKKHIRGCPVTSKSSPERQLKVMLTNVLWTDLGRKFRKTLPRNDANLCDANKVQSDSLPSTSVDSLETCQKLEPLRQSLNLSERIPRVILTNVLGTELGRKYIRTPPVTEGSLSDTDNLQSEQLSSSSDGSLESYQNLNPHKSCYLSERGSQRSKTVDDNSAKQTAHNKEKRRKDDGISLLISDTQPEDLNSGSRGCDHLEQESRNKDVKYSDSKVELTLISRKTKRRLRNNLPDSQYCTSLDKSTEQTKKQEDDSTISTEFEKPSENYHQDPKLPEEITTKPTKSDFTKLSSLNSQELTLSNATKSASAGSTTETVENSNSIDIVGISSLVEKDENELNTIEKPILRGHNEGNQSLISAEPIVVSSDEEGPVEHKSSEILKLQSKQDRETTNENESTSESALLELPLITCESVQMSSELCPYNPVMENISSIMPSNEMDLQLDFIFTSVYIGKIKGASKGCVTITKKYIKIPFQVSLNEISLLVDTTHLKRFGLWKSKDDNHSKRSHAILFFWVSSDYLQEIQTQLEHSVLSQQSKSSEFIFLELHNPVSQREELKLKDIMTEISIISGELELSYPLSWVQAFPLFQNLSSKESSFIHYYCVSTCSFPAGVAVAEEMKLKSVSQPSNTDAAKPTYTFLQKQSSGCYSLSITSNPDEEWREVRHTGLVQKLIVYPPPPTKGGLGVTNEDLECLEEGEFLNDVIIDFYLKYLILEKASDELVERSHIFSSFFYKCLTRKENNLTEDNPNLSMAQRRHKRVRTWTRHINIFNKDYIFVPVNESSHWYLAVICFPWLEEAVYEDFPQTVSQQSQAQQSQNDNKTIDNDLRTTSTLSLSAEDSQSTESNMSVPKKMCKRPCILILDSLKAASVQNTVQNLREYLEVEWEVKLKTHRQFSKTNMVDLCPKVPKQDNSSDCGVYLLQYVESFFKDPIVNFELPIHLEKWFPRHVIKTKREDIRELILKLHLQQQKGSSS

[2] = target: T4, Sentrin-specific protease 8 (Homo sapiens, UniProt Q96LD8); assay type: functional;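 further: luminescence read-out of SENP8 inhibition, dose-response confirmation following an ultra-high-throughput screen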
T4 sequence (Q96LD8 whole entry): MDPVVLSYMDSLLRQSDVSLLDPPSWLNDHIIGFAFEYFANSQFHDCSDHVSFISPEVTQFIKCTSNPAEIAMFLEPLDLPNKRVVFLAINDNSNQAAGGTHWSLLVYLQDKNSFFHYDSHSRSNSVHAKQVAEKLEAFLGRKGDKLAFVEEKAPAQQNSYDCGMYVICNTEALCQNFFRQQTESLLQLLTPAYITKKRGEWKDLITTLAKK

Protein RecA = target: T5, Protein RecA (Mycobacterium tuberculosis, UniProt P9WHJ3); assay: Fluorescence Cell-Free Homogeneous Dose Retest to Identify Inhibitors of RecA-Intein Splicing Activity. [Related pubchem assays (depositor defined):AID2097, AID2223, AID489010, AID492950]; assay type: functional
T5 sequence (P9WHJ3 whole entry): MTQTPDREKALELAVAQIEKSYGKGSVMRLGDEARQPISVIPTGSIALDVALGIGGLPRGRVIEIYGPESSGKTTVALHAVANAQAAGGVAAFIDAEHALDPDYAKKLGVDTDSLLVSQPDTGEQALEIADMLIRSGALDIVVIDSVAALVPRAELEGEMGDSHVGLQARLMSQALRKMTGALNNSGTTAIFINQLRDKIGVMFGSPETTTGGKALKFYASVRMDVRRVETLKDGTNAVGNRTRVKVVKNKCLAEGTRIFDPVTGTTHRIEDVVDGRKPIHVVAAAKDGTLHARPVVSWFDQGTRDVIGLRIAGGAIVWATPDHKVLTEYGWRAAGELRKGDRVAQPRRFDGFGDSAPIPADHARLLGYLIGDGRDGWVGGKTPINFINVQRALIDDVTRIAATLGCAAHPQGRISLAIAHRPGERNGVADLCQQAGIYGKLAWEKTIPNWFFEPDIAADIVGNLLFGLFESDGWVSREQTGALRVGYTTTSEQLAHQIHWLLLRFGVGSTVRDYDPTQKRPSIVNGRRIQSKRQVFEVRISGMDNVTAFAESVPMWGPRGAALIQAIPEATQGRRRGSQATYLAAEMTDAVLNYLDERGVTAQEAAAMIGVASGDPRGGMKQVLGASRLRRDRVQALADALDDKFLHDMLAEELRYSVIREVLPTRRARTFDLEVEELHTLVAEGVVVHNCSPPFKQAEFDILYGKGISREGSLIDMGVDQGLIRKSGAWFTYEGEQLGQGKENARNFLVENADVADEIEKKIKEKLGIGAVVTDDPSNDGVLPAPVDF

[3] = target: Tyrosyl-DNA phosphodiesterase 2 (Homo sapiens, UniProt O95551); assay: human TDP2 enzyme inhibitors, dose response, biochemical, epi absorbance, IC50 (AID 743297)
Chain of Tyrosyl-DNA phosphodiesterase 2 (O95551 whole entry): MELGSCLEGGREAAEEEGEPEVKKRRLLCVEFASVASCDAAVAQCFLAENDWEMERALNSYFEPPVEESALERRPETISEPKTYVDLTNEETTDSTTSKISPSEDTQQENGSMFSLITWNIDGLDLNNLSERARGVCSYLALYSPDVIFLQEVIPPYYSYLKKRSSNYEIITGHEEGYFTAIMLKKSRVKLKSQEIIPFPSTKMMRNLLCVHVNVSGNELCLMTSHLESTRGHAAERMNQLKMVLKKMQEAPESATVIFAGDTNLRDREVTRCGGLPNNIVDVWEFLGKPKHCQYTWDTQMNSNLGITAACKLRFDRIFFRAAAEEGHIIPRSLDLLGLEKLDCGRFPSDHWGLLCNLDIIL

| SMILES | EC50 (Streptokinase A) | IC50 (Caspase-3) | IC50 [1] | IC50 [2] | EC50 (Protein RecA) | IC50 [3] |
| --- | --- | --- | --- | --- | --- | --- |
| O=C(O)c1ccc(N/N=C/c2ccc(OC(=O)c3ccccc3Cl)cc2)cc1 | > 150 µM (not active) | 14.8 µM (active) | 3.74 µM (active) | 2.05 µM (active) | – | – |
| O=c1c2ccccc2nc(/C=C/c2cccnc2)n1Cc1ccccc1 | – | – | – | – | 9.92 µM (active) | – |
| NC(=O)C1CCN(C2=C(Cl)C(=O)c3ccccc3C2=O)CC1 | – | 7.35 µM (active) | 17.8 µM (active) | 8.88 µM (active) | 0.146 µM (active) | 13.6 µM (inactive) |
